In PubChem BioAssay (NCI):
Several values for one entry are separate records, joined by “and”; a condition that tells them apart may be missing. Equal values may be shown once.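 Tested at 5 concentrations; 48 h exposure; 96-well plates; endpoints linearly interpolated, else capped at highest concentration. GI50: concentration for 50% inhibition of growth. At the TGI there is no net growth.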

The compounds below were run on MDA-MB-468 breast (assay: NCI-60 cell line screen, 48 h).

SMILES	GI50	TGI
C#Cc1nc(Nc2cc(C)[nH]n2)c2ccccc2n1	0.184 µM	0.45 µM
COc1ccccc1Nc1ncc(-c2ccccc2)o1	3.02 µM	> 25 µM
CN(C)CCC(=O)C(=Cc1ccc(O)cc1)C(=O)CCN(C)C	26.8 µM	75.2 µM
Nc1c(C(=O)c2ccccc2)cnn1-c1ccc(F)cc1	> 25 µM	> 25 µM
O=C(NNc1ccccc1)C(=O)NNc1ccccc1	> 100 µM	> 100 µM
CCN(Cc1ccc(F)cc1)c1ccc(CO)c(Br)c1	0.0224 µM	0.0608 µM
O=[N+]([O-])c1cccc2ccc(N/N=C/c3ccccc3O)nc12	0.676 µM	> 100 µM
Cc1nc2cc(Nc3nc(Nc4ccc(F)cc4)nc(-c4cccs4)n3)ccc2n1Cc1ccccc1	3.62 µM	35.4 µM
BrCc1cccc(C[P+](c2ccccc2)(c2ccccc2)c2ccccc2)c1	2.25 µM	8.36 µM
O=[N+]([O-])c1ccc(CI)cc1	1.71 µM	4.09 µM
CC1CCN(C(=O)OCc2nc3nc(Cl)nc(N4CCOCC4)c3[nH]2)CC1	0.715 µM	2.37 µM
COc1ccc(-c2nnc(N3CCN(C(=O)CN4CCN(c5ccccc5)CC4)CC3)nc2-c2ccc(OC)cc2)cc1	8.31 µM	> 100 µM
Cn1c(=O)c(Oc2ccc(F)cc2)cc2cnc(NC3CCOCC3)nc21	> 25 µM	> 25 µM
O=C1c2cccc3cccc(c23)C(=O)N1CCCCCN1CCN(CCCCCOc2ccc(-c3nc4ccc(N5CCOCC5)cc4[nH]3)cc2)CC1	20.3 µM	34.6 µM
NCCc1cc(O)c(O)cc1O	20.7 µM	97.8 µM
Cc1ccc(Nc2oc(-c3ccccc3)nc2[P+](c2ccccc2)(c2ccccc2)c2ccccc2)cc1	0.266 µM	0.895 µM
COc1ccc(C(O)(CCC(C)C)C(CN2CCOCC2)c2ccc(Cl)cc2)cc1 (stereo not drawn)	7.43 µM	23.4 µM
CC(C(=O)O)c1cccc(Oc2ccccc2)c1 (stereo not drawn)	> 100 µM	> 100 µM
CSc1nc(NC2OC(COC(C)=O)C(OC(C)=O)C(OC(C)=O)C2OC(C)=O)c(N=CC=Nc2c(NC3OC(COC(C)=O)C(OC(C)=O)C(OC(C)=O)C3OC(C)=O)nc(SC)n(C)c2=O)c(=O)n1C (stereo not drawn)	39.4 µM	50 µM
CCc1ccc(/C=C/c2ccc(O)c3ncccc23)[n+](C)c1	0.539 µM	> 36.5 µM
CC(C)OC(=O)[C@H](C)NP(=O)(OC[C@H]1O[C@@H](n2ccc(=O)[nH]c2=O)[C@](C)(F)[C@@H]1O)Oc1ccccc1 (stereo partly drawn)	> 100 µM	> 100 µM
COc1ccc(-c2cc(/C=C/C(=O)c3ccc(OC)c(OC)c3)[nH]n2)cc1	1.22 µM	2.94 µM
O=C1CCC/C=C\C[C@H]2C=CC(=O)/C2=C/C[C@H](C/C=C\CC(F)(F)F)O1	0.521 µM	2.51 µM
Nc1ncc(-c2ccc3ncnc(N4CCc5cc(F)c(Cl)cc54)c3c2)cc1CO	0.236 µM	0.933 µM
COc1cc(C2CC(c3cccc(Nc4ccncc4)c3)=NN2c2ccc(Cl)cc2)cc(OC)c1OC (stereo not drawn)	1.63 µM	3.45 µM

SMILES	GI50	TGI
CC(C)=CCc1cc(O)cc2c1OC(C=C(C)C)C1=C2C(=O)C2=C(C1=O)S(=O)(=O)CCN2 (stereo not drawn)	2.68 µM	8.24 µM
CN(C)C(=S)Sc1ccc([N+](=O)[O-])cc1[N+](=O)[O-]	2.12 µM	5.78 µM
O=[P@@]1(c2ccccc2)O[C@H](COCc2ccccc2)[C@@H](OCc2ccccc2)[C@H](OCc2ccccc2)[C@H]1NCc1ccccc1	3.06 µM	12.6 µM
COC(=O)c1ccc2c(c1)/C(=C\c1cc(Br)c(O)c(Br)c1)C(=O)N2	6.09 µM	> 22 µM
CN1CC[C@@H](c2c(O)cc(O)c3c(=O)cc(-c4ccc(C(F)(F)F)cc4Cl)oc23)[C@@H]1CO	12.2 µM	29.6 µM
COc1cc(/C=C/C(=O)c2cccc(-n3cc(-c4ccc(Cl)cc4)[nH]c3=O)c2)ccc1O	3.12 µM	19.2 µM
Cn1c(Nc2ccc(C(F)(F)F)cc2)nc2cc(Oc3ccnc(-c4ncc(C(F)(F)F)[nH]4)c3)ccc21	0.127 µM	11.4 µM
Cc1ccc2c(C3C(C#N)=C(N)Oc4cc5ccccc5cc43)cc(=O)oc2c1 (stereo not drawn)	0.925 µM	67.1 µM
COc1cccc2c1C(=O)c1c(O)c3c(c(O)c1C2=O)C[C@@](O)(/C(C)=N/NC(=O)c1ccc(Cl)cc1)C[C@@H]3OC1CC(N)C(O)C(C)O1 (stereo partly drawn)	0.174 µM	0.495 µM
CN(C)c1ccc(N=Nc2ccccn2)c(O)c1	0.204 µM	0.912 µM
Cc1cc(N(CCCNc2ccnc3cc(Cl)ccc23)Cc2ccc3c(c2)OCO3)nc(N2CCOCC2)n1	0.202 µM	0.562 µM
COc1cc(/C=C\c2cc(OC)c(OC)c(OC)c2)cc(N/C=C\C(=O)c2cc(OC)c(OC)c(OC)c2)c1OC	1.88 µM	6.34 µM
Cn1cc(-c2csc(-c3c[nH]c4ccc(Br)cc34)n2)c2cnccc21	1.68 µM	3.56 µM
O=S(=O)(Nc1ccc(Cl)cc1Cl)c1ccc(-c2cnc(C3CC3)o2)cc1	0.339 µM	2.9 µM
CC1(C)N=C(N)N=C(N)N1c1ccc(CCCCc2ccc(Cl)c(S(=O)(=O)F)c2)c(Cl)c1	2.51 µM	16.4 µM
COc1ccc(-c2nsc3c2NC(=O)CC3c2cccc(OC)c2)cc1 (stereo not drawn)	0.395 µM	3.97 µM
CS(=O)(=O)Nc1cc(-c2ccc3ncnc(Nc4c(Cl)ccc5c4OCO5)c3c2)cnc1Cl	0.128 µM	0.454 µM
O=C1c2cc3c(cc2-c2c1c1cc(Cl)c(Cl)cc1c(=O)n2C[C@H](O)CO)OCO3	< 0.01 µM	0.0305 µM
Clc1nc(Cl)nc(Nc2cccc3ccccc23)n1	52.1 µM	> 100 µM
CCOC(=O)c1c(-c2ccc(OC)cc2)c(C#N)c2c(C#N)c(N)nn2c1N	2.08 µM	6.86 µM
Nc1ccn(C2OC(CO)C(O)C2O)c(=O)n1 (stereo not drawn)	> 61.1 µM	> 100 µM
C=COC(=O)N[C@H]1CCc2cc(OC)c(OC)c(OC)c2-c2ccc(SC)c(=O)cc21	< 0.01 µM	> 100 µM
CN(C)C/C=C/C(=O)Nc1cc2c(Nc3ccc(F)c(Cl)c3)ncnc2cc1O[C@H]1CCOC1	< 0.01 µM and 0.00112 µM	0.01 µM and 0.0067 µM
C[C@H](Nc1cc(Cl)nc2c1cnn2[C@@H]1O[C@H](COP(=O)(O)CP(=O)(O)O)[C@@H](O)[C@H]1O)c1ccccc1F	> 100 µM	> 100 µM
